Values of other authors as cited in PubChem BioAssay AID1259409 (Chemical Carcinogenesis Research Information System (CCRIS), 2018).

Test system: rodent chemically induced tumor inhibition, incidence and multiplicity
Test: CCRIS tumor inhibitor studies

O=C(OC[C@@H]1O[C@H](OC(=O)c2cc(O)c(O)c(OC(=O)c3cc(O)c(O)c(O)c3)c2)[C@@H](OC(=O)c2cc(O)c(O)c(OC(=O)c3cc(O)c(O)c(O)c3)c2)[C@H](OC(=O)c2cc(O)c(O)c(OC(=O)c3cc(O)c(O)c(O)c3)c2)[C@H]1OC(=O)c1cc(O)c(O)c(OC(=O)c2cc(O)c(O)c(O)c2)c1)c1cc(O)c(O)c(OC(=O)c2cc(O)c(O)c(O)c2)c1
tumour outcome (control, treated, inhibition, significance) (Carcinogen: 7,12-DIMETHYLBENZ[A]ANTHRACENE, 57-97-6, Dose [Inhibitor]: 0, 17 MG 2/WK FOR 20 WK APPLIED 20 MIN PRIOR TO EACH PROMOTER DOSE (STUDY DURATION: 22 WK), Route [Inhibitor]: DERMAL, Species: (36,?)/(36,?), Strain/Sex: CF-1/FEMALE, Target Tissue: Type of Lesion: SKIN: PAPILLOMA, Dose [Carcinogen]: 25.6 UG IN 0.2 ML ACETONE ONCE, Promoter: 12-O-TETRADECANOYLPHORBOL-13-ACETATE, 16561-29-8): 90%, 65%, 28%, not calculated | tumour outcome (control, treated, inhibition, significance) (Carcinogen: 7,12-DIMETHYLBENZ[A]ANTHRACENE, 57-97-6, Dose [Inhibitor]: 0, 20 UMOL IN 0.4 ML ACETONE 20 MIN PRIOR TO EACH PROMOTER DOSE (STUDY DURATION: 47 WK), Route [Inhibitor]: DERMAL, Species: MOUSE, Strain/Sex: CF-1/FEMALE, Target Tissue: Type of Lesion: SKIN: CARCINOMA, Dose [Carcinogen]: 100 NMOL IN 0.2 ML ACETONE ONCE): 66%, 0%, 100%, not calculated | tumour outcome (control, treated, inhibition, significance) (Carcinogen: 7,12-DIMETHYLBENZ[A]ANTHRACENE, 57-97-6, Dose [Inhibitor]: 0, 20 UMOL IN 0.4 ML ACETONE 20 MIN PRIOR TO EACH PROMOTER DOSE (STUDY DURATION: 47 WK), Route [Inhibitor]: DERMAL, Species: MOUSE, Strain/Sex: CF-1/FEMALE, Target Tissue: Type of Lesion: SKIN: PAPILLOMA, Dose [Carcinogen]: 100 NMOL IN 0.2 ML ACETONE ONCE): 94%, 23%, 76%, not calculated | tumour outcome (control, treated, inhibition, significance) (Carcinogen: 7,12-DIMETHYLBENZ[A]ANTHRACENE, 57-97-6, Dose [Inhibitor]: 0, 34 MG 2/WK FOR 2 WK APPLIED 20 MIN PRIOR TO EACH TPA DOSE (STUDY DURATION: 22 WK), Route [Inhibitor]: DERMAL, Species: MOUSE, Strain/Sex: SENCAR/FEMALE, Target Tissue: Type of Lesion: SKIN: PAPILLOMA, Dose [Carcinogen]: 6.4 UG IN 0.2 ML ACETONE ONCE, Promoter: 12-O-TETRADECANOYLPHORBOL-13-ACETATE, 16561-29-8, MEZEREIN, 34807-41-5, Promoter: 12-O-TETRADECANOYLPHORBOL-13-ACETATE, 16561-29-8, MEZEREIN, 34807-41-5): 90%, 96%, -7%, not calculated | tumour outcome (control, treated, inhibition, significance) (Carcinogen: 7,12-DIMETHYLBENZ[A]ANTHRACENE, 57-97-6, Dose [Inhibitor]: 0, 34 MG 2/WK FOR 18 WK APPLIED 20 MIN PRIOR TO EACH MEZEREIN DOSE (STUDY DURATION: 22 WK), Route [Inhibitor]: DERMAL, Species: MOUSE, Strain/Sex: SENCAR/FEMALE, Target Tissue: Type of Lesion: SKIN: PAPILLOMA, Dose [Carcinogen]: 6.4 UG IN 0.2 ML ACETONE ONCE, Promoter: 12-O-TETRADECANOYLPHORBOL-13-ACETATE, 16561-29-8, MEZEREIN, 34807-41-5, Promoter: 12-O-TETRADECANOYLPHORBOL-13-ACETATE, 16561-29-8, MEZEREIN, 34807-41-5): 90%, 25%, 72%, not calculated | tumour outcome (control, treated, inhibition, significance) (Carcinogen: (+/-)-7BETA,8ALPHA-DIHYDROXY-9ALPHA,10ALPHA-EPOXY-7,8,9,10- TETRAHYDROBENZO[A]PYRENE, 58917-67-2, Dose [Inhibitor]: 3000 NMOL IN 0.2 ML ACETONE 1/D FOR 7 D (STUDY DURATION: 18 WK), Route [Inhibitor]: DERMAL, Species: MOUSE, Strain/Sex: SENCAR/FEMALE, Target Tissue: Type of Lesion: SKIN: TUMOR, Dose [Carcinogen]: 200 NMOL IN 0.2 ML ACETONE ONCE 30 MIN POST LAST INHIBITOR DOSE, Promoter: 12-O-TETRADECANOYLPHORBOL-13-ACETATE, 16561-29-8): 75%, 60%, 20%, not significant | tumour outcome (control, treated, inhibition, significance) (Carcinogen: BENZO[A]PYRENE, 50-32-8, Dose [Inhibitor]: 1% AQUEOUS SOLUTION 3/WK FOR A TOTAL OF 80 APPLICATIONS FOLLOWED BY AT LEAST 365 D OBSERVATION PERIOD (STUDY DURATION: 5, Route [Inhibitor]: DERMAL, Species: MOUSE, Strain/Sex: CD-1/MALE, FEMALE, Target Tissue: Type of Lesion: SKIN: CARCINOMA, SQUAMOUS CELL PAPILLOMA, SEBACEOUS ADENOMA, BASAL CELL TUMOR, KERATOACANTHOMA, Dose [Carcinogen]: 0.53-0.6 MG ONCE PRIOR TO START OF AGENT TREATMENT, Promoter: NONE USED): 17/50 (34%), 15/50 (30%), 12%, not significant | tumour outcome (control, treated, inhibition, significance) (Carcinogen: BENZO[A]PYRENE, 50-32-8, Dose [Inhibitor]: 1% IN DIET BEGINNING 45 D PRIOR TO CARCINOGEN (STUDY DURATION: 36 WK), Route [Inhibitor]: ORAL, Species: MOUSE, Strain/Sex: SENCAR/FEMALE, Target Tissue: Type of Lesion: FORESTOMACH: PAPILLOMA, Dose [Carcinogen]: 100 MG/KG IN 0.2 ML CORN OIL 2/WK FOR 4 WK, Promoter: NONE USED): 27/30 (90%), 19/30 (63%), 30%, not calculated | tumour outcome (control, treated, inhibition, significance) (Carcinogen: BENZO[A]PYRENE, 50-32-8, Dose [Inhibitor]: 1% IN DIET BEGINNING 45 D PRIOR TO CARCINOGEN (STUDY DURATION: 36 WK), Route [Inhibitor]: ORAL, Species: MOUSE, Strain/Sex: SENCAR/FEMALE, Target Tissue: Type of Lesion: LUNG: ADENOMA, Dose [Carcinogen]: 100 MG/KG IN 0.2 ML CORN OIL ONCE, Promoter: NONE USED): 27/30 (90%), 18/30 (60%), 33%, not calculated | tumour outcome (control, treated, inhibition, significance) (Carcinogen: DIMETHYLBENZ[A]ANTHRACENE, 57-97-6, Dose [Inhibitor]: 1% IN DIET BEGINNING 45 D PRIOR TO CARCINOGEN DOSE AND CONTINUED FOR 10 D POST CARCINOGEN (STUDY DURATION: 16 WK), Route [Inhibitor]: ORAL, Species: MOUSE, Strain/Sex: SENCAR/FEMALE, Target Tissue: Type of Lesion: SKIN: PAPILLOMA, Dose [Carcinogen]: 10 UG IN 0.2 ML ACETONE ONCE, Promoter: TPA, 16561-29-8): 30/30 (100%), 30/30 (100%), 0%, not calculated | tumour outcome (control, treated, inhibition, significance) (Carcinogen: UV IRRADIATION, Dose [Inhibitor]: 0, 200 UG IN 200 µL ACETONE 3/WK FOR DURATION OF STUDY BEGINNING 2 WK PRIOR TO UV IRRADIATION (STUDY DURATION: 29 WK), Route [Inhibitor]: DERMAL, Species: MOUSE, Strain/Sex: BALB/CANNTACFBR/FEMALE, Target Tissue: Type of Lesion: SKIN: TUMOR, Dose [Carcinogen]: 6.94 J/M2/SEC 30 MIN/D 5 D/WK FOR 17.5 WK, Promoter: NONE USED): 75%, 42%, 44%, p=0.028
